Experiments:
[1] = biological target: T1, Potassium/sodium hyperpolarization-activated cyclic nucleotide-gated channel 1 (Homo sapiens, UniProt O60741); test: Inhibition of human HCN1 heterologously expressed in HEK-293 cells after 30 mins by VIPR assay; type: cell-based, HEK293
T1 sequence (O60741 whole entry): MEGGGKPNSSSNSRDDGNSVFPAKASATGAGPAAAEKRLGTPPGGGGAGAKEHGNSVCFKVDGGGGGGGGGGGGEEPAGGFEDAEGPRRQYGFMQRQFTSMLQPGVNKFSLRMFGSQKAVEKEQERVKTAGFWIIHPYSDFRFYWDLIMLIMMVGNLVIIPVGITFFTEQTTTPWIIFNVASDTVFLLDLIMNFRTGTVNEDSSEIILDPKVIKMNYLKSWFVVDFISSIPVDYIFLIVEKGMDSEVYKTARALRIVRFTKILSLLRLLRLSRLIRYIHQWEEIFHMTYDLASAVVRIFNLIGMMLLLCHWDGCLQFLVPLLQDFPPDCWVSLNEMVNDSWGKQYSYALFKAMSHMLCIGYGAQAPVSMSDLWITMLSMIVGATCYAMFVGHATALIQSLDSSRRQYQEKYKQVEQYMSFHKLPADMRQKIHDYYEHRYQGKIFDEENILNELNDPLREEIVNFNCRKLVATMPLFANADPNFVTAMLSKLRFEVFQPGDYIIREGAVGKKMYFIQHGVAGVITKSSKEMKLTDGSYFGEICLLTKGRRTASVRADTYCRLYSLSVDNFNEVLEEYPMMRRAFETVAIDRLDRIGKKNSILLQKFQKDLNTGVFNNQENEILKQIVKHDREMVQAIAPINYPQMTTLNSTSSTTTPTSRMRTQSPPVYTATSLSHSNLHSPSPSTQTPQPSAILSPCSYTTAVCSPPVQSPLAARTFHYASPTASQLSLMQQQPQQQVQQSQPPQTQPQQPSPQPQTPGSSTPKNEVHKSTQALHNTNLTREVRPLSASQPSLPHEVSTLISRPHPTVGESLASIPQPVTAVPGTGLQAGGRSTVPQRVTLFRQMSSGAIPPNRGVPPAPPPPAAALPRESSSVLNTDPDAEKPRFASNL

[2] = biological target: T2, Potassium/sodium hyperpolarization-activated cyclic nucleotide-gated channel 4 (Homo sapiens, UniProt Q9Y3Q4); test: Inhibition of human HCN4 heterologously expressed in HEK-293 cells after 30 mins by VIPR assay; type: cell-based, HEK293
T2 sequence (Q9Y3Q4 whole entry): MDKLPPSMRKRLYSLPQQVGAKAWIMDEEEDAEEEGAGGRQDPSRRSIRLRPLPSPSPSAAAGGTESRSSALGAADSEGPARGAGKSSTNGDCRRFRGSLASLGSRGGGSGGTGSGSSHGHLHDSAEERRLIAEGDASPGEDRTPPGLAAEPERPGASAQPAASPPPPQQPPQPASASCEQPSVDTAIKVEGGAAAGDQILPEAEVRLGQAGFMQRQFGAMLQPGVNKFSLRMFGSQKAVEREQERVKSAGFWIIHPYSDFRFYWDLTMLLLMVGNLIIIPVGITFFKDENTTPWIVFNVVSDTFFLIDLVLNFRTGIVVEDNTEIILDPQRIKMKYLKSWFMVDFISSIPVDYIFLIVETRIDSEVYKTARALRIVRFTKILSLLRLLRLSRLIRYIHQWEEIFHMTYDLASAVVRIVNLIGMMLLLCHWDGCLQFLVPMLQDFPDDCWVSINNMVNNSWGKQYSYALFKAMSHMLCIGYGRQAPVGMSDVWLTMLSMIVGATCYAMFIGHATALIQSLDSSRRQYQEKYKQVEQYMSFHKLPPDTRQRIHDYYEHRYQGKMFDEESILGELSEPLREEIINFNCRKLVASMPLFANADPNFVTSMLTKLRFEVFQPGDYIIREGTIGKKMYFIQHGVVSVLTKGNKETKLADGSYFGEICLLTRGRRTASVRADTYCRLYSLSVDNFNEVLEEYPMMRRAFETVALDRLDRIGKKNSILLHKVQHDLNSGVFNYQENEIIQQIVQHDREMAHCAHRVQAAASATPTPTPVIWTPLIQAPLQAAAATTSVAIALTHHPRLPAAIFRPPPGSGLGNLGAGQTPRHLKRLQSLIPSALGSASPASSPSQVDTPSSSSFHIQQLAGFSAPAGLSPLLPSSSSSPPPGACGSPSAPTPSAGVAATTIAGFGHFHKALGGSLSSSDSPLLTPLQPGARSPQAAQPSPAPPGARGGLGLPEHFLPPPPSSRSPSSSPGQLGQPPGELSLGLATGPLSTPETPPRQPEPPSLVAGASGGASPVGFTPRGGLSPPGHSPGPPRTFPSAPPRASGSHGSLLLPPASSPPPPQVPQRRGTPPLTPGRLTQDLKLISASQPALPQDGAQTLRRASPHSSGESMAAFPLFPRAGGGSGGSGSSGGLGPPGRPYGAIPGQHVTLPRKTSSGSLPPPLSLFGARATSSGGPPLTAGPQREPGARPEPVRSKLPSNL

Homo sapiens [3] = species: Homo sapiens; test: Selectivity for human HCN1 over human HCN4
[4] = Half life in human liver microsomes; type: ADME, Microsome
Homo sapiens [5] = species: Homo sapiens; test: Selectivity for human HCN1 over human HCN2
Mus musculus [6] = test: Antiallodynic activity in ip dosed C57BL/6 mouse spared-nerve injury model assessed as reduction of tactile allodynia after 60 mins; type: functional; settings: C57BL/6, ip, 1 h
Mus musculus [7] = species: Mus musculus; test: Toxicity in C57BL/6 mouse assessed as induction of bradycardia after 50 mins by ECG study; type: organism-based; settings: in vivo

Structure (SMILES): CCOc1ccccc1C(=O)NCC1(N2CCN(C(C)C)CC2)Cc2ccccc2C1
- IC50 [1]: 0.631 µM
- IC50 [2]: 3.16 µM

Structure (SMILES): CCOc1ccccc1C(=O)NCC1(N2CCN(C)CC2)CCCCC1
- Selectivity ratio (Homo sapiens [3]): 10
- IC50 [1]: 0.126 µM
- IC50 [2]: 1.26 µM
- half-life [4]: 22 min

Structure (SMILES): COc1ccccc1C(=O)NCCN1CCN(C)CC1
- IC50 [1]: > 200 µM
- pIC50 ([2]; hek293): > 3.7

Structure (SMILES): COc1ccc([C@@H](C)CN(C/C=C\CN2C=Cc3cc(OC)c(OC)cc3CC2=O)C/C=C\CN2C=Cc3cc(OC)c(OC)cc3CC2=O)cc1OC
- Selectivity ratio (Homo sapiens [3]): > 150
- Selectivity ratio (Homo sapiens [5]): 30

Structure (SMILES): COc1cccc(C(=O)NCC2(N3CCN(C)CC3)Cc3ccccc3C2)c1
- IC50 [1]: 63.1 µM
- IC50 [2]: > 200 µM

Structure (SMILES): CCOc1ccccc1C(=O)NCC1(N2CCCCC2)Cc2ccccc2C1
- IC50 [1]: 15.8 µM
- IC50 [2]: 39.8 µM

Structure (SMILES): COc1ccccc1C(=O)NCC(c1ccc(C)cc1)N1CCN(C)CC1 (configuration not stated)
- IC50 [1]: 2.51 µM
- IC50 [2]: 20 µM

Structure (SMILES): Cc1ccccc1C(=O)NCC1(N2CCN(C)CC2)CCCCC1
- Selectivity ratio (Homo sapiens [3]): 10
- IC50 [1]: 63.1 µM
- IC50 [2]: > 200 µM

Structure (SMILES): CCc1ccccc1C(=O)NCC1(N2CCN(C(C)C)CC2)CCCCC1
- Selectivity ratio (Homo sapiens [3]): 10
- IC50 [1]: > 200 µM
- IC50 [2]: 79.4 µM

Structure (SMILES): CN1CCN(C2(CNC(=O)c3ccccc3F)Cc3ccccc3C2)CC1
- IC50 [1]: 25.1 µM
- IC50 [2]: > 200 µM

Structure (SMILES): COc1ccccc1C(=O)NCC1(N2CCN(C)CC2)CCCCC1
- Selectivity ratio (Homo sapiens [3]): 10
- IC50 [1]: 0.398 µM
- IC50 [2]: 5.01 µM

Structure (SMILES): CN1CCN(C2(CNC(=O)c3ccccc3Cl)Cc3ccccc3C2)CC1
- IC50 [1]: 20 µM
- IC50 [2]: 158 µM

Structure (SMILES): COc1ccccc1C(=O)NCC1(N2CCN(C)CC2)Cc2ccccc2C1
- IC50 [1]: 1.26 µM
- IC50 [2]: 20 µM

Structure (SMILES): COc1ccccc1C(=O)NCC1(N2CCN(C(C)C)CC2)CCN(c2ccccc2)CC1
- IC50 [1]: 0.631 µM
- IC50 [2]: 5.01 µM

Structure (SMILES): CN1CCN(C2(CNC(=O)c3ccccc3OC(F)(F)F)Cc3ccccc3C2)CC1
- IC50 [1]: 25.1 µM
- IC50 [2]: > 200 µM

Structure (SMILES): CN1CCN(C2(CNC(=O)c3ccccc3Cl)CCCCC2)CC1
- Selectivity ratio (Homo sapiens [3]): 10
- IC50 [1]: > 200 µM
- IC50 [2]: 31.6 µM

Structure (SMILES): COc1ccc(C(=O)NCC2(N3CCN(C)CC3)Cc3ccccc3C2)cc1
- IC50 [1]: 100 µM
- IC50 [2]: > 200 µM

Structure (SMILES): CCOc1ccccc1C(=O)NCC1(N2CCN(c3ccccc3)CC2)CCCCC1
- Selectivity ratio (Homo sapiens [3]): 10
- IC50 [1]: > 200 µM
- IC50 [2]: 100 µM

Structure (SMILES): CCOc1ccccc1C(=O)NCC1(N2CCN(C(C)C)CC2)CCOCC1
- IC50 [1]: 0.316 µM
- IC50 [2]: 3.98 µM

Structure (SMILES): CCOc1ccccc1C(=O)NCC1(N2CCN(C3CCC3)CC2)CCCCC1
- Selectivity ratio (Homo sapiens [3]): 10
- IC50 [1]: 0.0794 µM
- IC50 [2]: 0.794 µM

Structure (SMILES): CCOc1ccccc1C(=O)NCC1(N2CCN(C)CC2)Cc2ccccc2C1
- IC50 [1]: 0.398 µM
- IC50 [2]: 5.01 µM

Structure (SMILES): CCN(c1ccccc1)c1cc(NC)[n+](C)c(C)n1.[Cl-]
- IC50 [1]: 0.158 µM
- IC50 [2]: 0.0316 µM
- ED50 (Mus musculus [6]): 3 mg/kg
- ED20 (Mus musculus [7]): 1.3 mg/kg

Structure (SMILES): CCOc1ccccc1C(=O)NCC1(N2CCN(C3CC3)CC2)CCCCC1
- Selectivity ratio (Homo sapiens [3]): 10
- IC50 [1]: 0.0501 µM
- IC50 [2]: 0.316 µM

Structure (SMILES): COc1ccccc1C(=O)NCC1(N2CCCCC2)Cc2ccccc2C1
- IC50 [1]: 50.1 µM
- IC50 [2]: > 200 µM

Structure (SMILES): COc1ccccc1C(=O)NCC1(N2CCN(C)CC2)CCc2ccccc2C1 (configuration not stated)
- IC50 [1]: 1.58 µM
- IC50 [2]: 6.31 µM

Structure (SMILES): CN1CCN(C2(CNC(=O)c3ccccc3OCc3ccccc3)Cc3ccccc3C2)CC1
- IC50 [1]: 0.631 µM
- IC50 [2]: 2.51 µM

Structure (SMILES): CCOc1ccccc1C(=O)NCC1(N2CCN(CC)CC2)CCCCC1
- Selectivity ratio (Homo sapiens [3]): 10
- IC50 [1]: 0.0316 µM
- IC50 [2]: 0.158 µM

Structure (SMILES): COc1ccccc1C(=O)NCC1(N2CCN(C(C)C)CC2)CCCCC1
- Selectivity ratio (Homo sapiens [3]): 10
- IC50 [1]: 0.0316 µM
- IC50 [2]: 0.794 µM

Structure (SMILES): CC(C)Oc1ccccc1C(=O)NCC1(N2CCN(C(C)C)CC2)CCCCC1
- Selectivity ratio (Homo sapiens [3]): 10
- IC50 [1]: 0.251 µM
- IC50 [2]: 1.58 µM

Structure (SMILES): CN1CCN(C2(CNC(=O)c3ccccc3O)Cc3ccccc3C2)CC1
- IC50 [1]: > 200 µM
- IC50 [2]: > 200 µM

Structure (SMILES): CCOc1ccccc1C(=O)NCC1(N2CCN(C(C)C)CC2)CCCCC1
- Selectivity ratio (Homo sapiens [3]): 10
- IC50 [1]: 0.0158 µM
- IC50 [2]: 0.316 µM

Structure (SMILES): CCOc1ccccc1C(=O)NCC1(N2CCN(C3CCCC3)CC2)CCCCC1
- Selectivity ratio (Homo sapiens [3]): 10
- IC50 [1]: 0.2 µM
- IC50 [2]: 0.794 µM

Structure (SMILES): CCOc1ccccc1C(=O)NCC1(N2CCN(C)CC2)CCCC1
- IC50 [1]: 0.398 µM
- IC50 [2]: 5.01 µM
